In patent US7700601B2, “Substituted indazoles of formula 1.0 that are kinase inhibitors” (Schering Corporation, priority 2006, dated 2010) one finds IC50 data, which are given here for 26 molecules.

Values joined by “and” are separate entries in the source; they are usually repeats but may differ in a detail not shown here. Identical values can stand only once.

The experiment addresses T1, Akt1 (Homo sapiens, UniProt P31749).
T1 construct: (His)6 (N); made in house; host or cells: Sf9 insect cells (baculovirus, pBlueBacHis2B)
Briefly: Akt1 kinase assay (33P phosphorylation of biotinylated Gsk3-derived peptide, streptavidin Flash plates). The format is biochemical. The source says:
The assay described below measures the phosphorylation of a biotinylated peptide by active recombinant Akt1 and other kinase isoforms. The biotinylated peptide contains a consensus sequence derived from Akt substrate Gsk3 (Glycogen synthase kinase 3). The ^33P-labeled peptide substrate was captured by streptavidin-coated Flash plates.
Active recombinant Akt1 was expressed in Sf9 insect cells and purified as described by Kumar et al., Biochim. Biophys. Acta. Jun. 15, 2001, 1526(3), 257-268. Biotinylated peptide of the sequence Bio-ahx-RPRAASF was purchased from Syn Pep (Dublin, Calif., USA).
Human Akt1 cDNA was amplified from a marathon-ready human lung cDNA library (Clonetech) using nested oligo primers as described below. The first round of amplification was carried out using the following primers; Akt1F1 ([…]) (SEQ ID NO: 1 and Akt1R1 (TCCATC […]) (SEQ ID NO: 2) and for the second round amplification, the primers of the following sequence were used; Akt1F2 (GGATCCTCGG […]) (SEQ ID NO: 3) and AKT1R2 (GGTACCATCGTC […]) (SEQ ID NO: 4). The PCR product was subcloned into pCRScript plasmid as a BamHI/KpnI fragment and the sequence of the cDNA was confirmed by DNA sequencing. This plasmid was used as a template for reamplification of Akt1 using appropriate primers for subcloning into pBlueBaHis2B into BamH1/EcoRI sites to generate an in frame fusion to (His)6 tag and an anti-Xpress antibody epitope tag at the N-terminus. This construct was sequenced to verify the junction sequences and used for generating a recombinant baculovirus. Growth of the recombinant virus, amplification and determination of viral titer were carried out according to the instructions from the manufacturer (InVitrogen, Calif.).
Viral stocks were used to infect large scale Sf9 cells at a multiplicity of infection (MOI) of 2.5. Cells were maintained at 27° C. for 60 h and okadaic acid was added to the cultures to a concentration of 50 nM. Cells were harvested 4 h hours later by centrifugation at 1200 rpm for 30 min followed by freezing at −80° C. until further use. All purification steps were carried out at 4° C. Whole cell pellets were suspended in buffer A (20 mM sodium phosphate buffer pH 7.8, 500 mM NaCl, 1 mM sodium vanadate, 5 mM sodium fluoride, 40 mM β-glycerophosphate, 10 mM imidazole and protease inhibitor cocktail) and lysed using a microfluidizer. The cell extract was centrifuged at 16,000×g for 10 min to remove the debris and directly loaded onto Ni-NTA Superflow resin using a FPLC pump operated at 1 ml/min. The column was washed once with buffer A, once with wash buffer B (20 mM sodium phosphate pH 6.0, 1 mM sodium vanadate, 5 mM sodium fluoride and protease cocktail) and once with wash buffer B containing 0.05% Tween-20 followed by washing with buffer A until OD260 returned to basal level. Proteins were eluted with buffer A containing 200 mM imidazole. Fractions were analyzed by electrophoresis on 10% denaturing polyacrylamide gels and fractions containing 85% pure protein band at 60 KDa were pooled and dialyzed against buffer C (20 mM Tris-HCl pH 7.5, 0.5 mM EDTA, 2 mM DTT, 145 mM NaCl, 0.1 mM sodium vanadate, 5 mM sodium fluoride, 10 mM β-glycerophosphate and 20% glycerol). Purified protein was stored as aliquots at −80° C. Protein concentrations were determined using BCA protein assay reagent A (Catalog #23228). To examine the identity of the proteins, 2 μg of purified protein was electrophoresed on SDS-polyacrylamide gels and stained with coomassie blue dye or transferred to nitrocellulose membrane and probed with anti-Akt and anti-phospho-specific Akt antibodies using enhanced chemiluminescence (ECL) reagent according to the protocol described by the manufacturer (Amersham).
The kinase assay was performed in 96 well plates at room temperature. Assay solutions and plates were preincubated at room temperature for 5 min. […]

Setting [1] is: active recombinant Akt1, 2 μM cold ATP, 2 hr, room temperature.
The mark [2] stands for this setting: Table 2, active recombinant Akt1.

T1 sequence (P31749 whole entry): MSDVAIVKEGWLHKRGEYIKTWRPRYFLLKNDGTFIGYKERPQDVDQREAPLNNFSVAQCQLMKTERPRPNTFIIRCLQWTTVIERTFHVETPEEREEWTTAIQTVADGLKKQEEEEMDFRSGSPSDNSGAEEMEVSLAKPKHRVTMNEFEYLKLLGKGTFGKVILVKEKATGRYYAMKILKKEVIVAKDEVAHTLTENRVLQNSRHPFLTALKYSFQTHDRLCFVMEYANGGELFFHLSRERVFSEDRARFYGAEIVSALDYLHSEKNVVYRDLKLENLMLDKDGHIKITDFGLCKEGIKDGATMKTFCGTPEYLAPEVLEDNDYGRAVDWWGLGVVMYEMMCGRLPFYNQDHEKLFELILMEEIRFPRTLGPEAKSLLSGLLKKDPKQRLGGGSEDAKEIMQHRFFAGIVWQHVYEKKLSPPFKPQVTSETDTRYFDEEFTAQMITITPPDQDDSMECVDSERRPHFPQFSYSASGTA

On to `Cc1n[nH]c2ccc(-c3cnc(NCc4ccc(F)cc4)c(N4CCNCC4)n3)cc12` [Example 43], for which the IC50 under setting [1] is 0.98 to 240 nM. With `Cc1n[nH]c2ccc(-c3cnc(NCc4ccccc4F)c(N4CCNCC4)n3)cc12` [Example 41], the half-maximal inhibitory concentration (IC50) under setting [1] fell in the range of 0.98 to 240 nM. For `Cc1n[nH]c2ccc(-c3cnc(N)c(N4CCNCC4)n3)cc12` [Example 12], under setting [1], the IC50 was in the range of 0.98 to 240 nM. For `Cc1n[nH]c2ccc(-c3cnc(NCc4cccc(F)c4)c(N4CCNCC4)n3)cc12` [Example 42], the IC50 under setting [1] is 0.98 to 240 nM and 0.98 to 46 nM. As to `Cc1n[nH]c2ccc(-c3cnc(N)c(N4CCN[C@@H](Cc5ccccc5)C4)n3)cc12` [drawing 106], the 50% inhibitory concentration (IC50) under setting [2] stood at 55 nM. Take `COc1cccc(CNc2ncc(-c3ccc4[nH]nc(C)c4c3)nc2N2CCNCC2)c1` [Example 34]: the IC50 under setting [1] lay within 0.98 to 240 nM. With `Cc1n[nH]c2ccc(-c3cnc(NCc4ccccc4Cl)c(N4CCNCC4)n3)cc12` [drawing 105], the IC50 under setting [2] was 129 nM. As to `Cc1n[nH]c2ccc(-c3cnc(NCc4ccccc4)c(N4CCNCC4)n3)cc12` [Example 18], the 50% inhibitory concentration (IC50) under setting [1] is 0.98 to 240 nM and 0.98 to 46 nM. As for `Cc1n[nH]c2ccc(-c3cncc(N4CCN[C@@H](Cc5ccccc5)C4)n3)cc12` [Example 2, 2-[(S)-3-benzylpiperazinyl]-6-[3-methyl-1H-indazol-5-yl]pyrazine], the IC50 reads like this: under setting [2], 1 nM; under setting [1], 0.98 to 240 nM and 0.98 to 46 nM and 0.98 nM.

In the case of `Cc1n[nH]c2ccc(-c3cnc(NCc4ccccc4)c(N4CCN[C@@H](Cc5ccccc5)C4)n3)cc12` [drawing 104], the IC50 under setting [2] amounted to 76 nM. On to `Cc1ccccc1CNc1ncc(-c2ccc3[nH]nc(C)c3c2)nc1N1CCNCC1` [Example 38], for which, under setting [1], the IC50 lay within 0.98 to 240 nM. Consider `Cc1ccccc1CNc1ncc(-c2ccc3[nH]nc(C)c3c2)nc1N1CCNCC1` [drawing 108], for which the IC50 under setting [2] came to 140 nM. On to `Cc1n[nH]c2ccc(-c3cnc(NCc4ccccc4Cl)c(N4CCNCC4)n3)cc12` [Example 31], for which the IC50 under setting [1] fell in the range of 0.98 to 240 nM. Still for that read-out and setting: then `Cc1n[nH]c2ccc(-c3cnc(N(C)Cc4ccccc4)c(N4CCNCC4)n3)cc12` [Example 27], with 0.98 to 240 nM. `COc1cccc(CNc2ncc(-c3ccc4[nH]nc(C)c4c3)nc2N2CCNCC2)c1` [drawing 109]: the IC50 under setting [2] was determined as 148 nM. Turning to `Cc1n[nH]c2ccc(-c3cnc(NCc4c(F)cccc4Cl)c(N4CCNCC4)n3)cc12` [Example 50], the half-inhibitory concentration (IC50) under setting [1] lay in the range of 0.98 to 240 nM.

In the case of `Cc1n[nH]c2ccc(-c3cnc(NCc4ccc(Cl)cc4)c(N4CCNCC4)n3)cc12` [Example 29], the IC50 under setting [1] lay within 0.98 to 240 nM. With `Cc1n[nH]c2ccc(-c3cnc(N)c(N4CCN[C@@H](Cc5ccccc5)C4)n3)cc12` [Example 1, 2-amino-3-[(S)-3-benzylpiperazinyl]-5-(3-methyl-1H-indazol-5-yl)pyrazine], the half-inhibitory concentration (IC50) under setting [1] is 0.98 to 240 nM. Regarding `Cc1n[nH]c2ccc(-c3cnc(N)c(NCCN)n3)cc12`, the IC50 under setting [2] worked out at 74 nM.

For `Cc1n[nH]c2ccc(-c3cnc(NCc4ccccc4)c(N4CCN[C@@H](Cc5ccccc5)C4)n3)cc12` [Example 5], the IC50 under setting [1] was 0.98 to 240 nM. Same read-out and setting: then `Cc1n[nH]c2ccc(-c3cnc(N)c(N4CCN[C@H](c5ccccc5)C4)n3)cc12` [Example 8], with 0.98 to 240 nM. With `Cc1n[nH]c2ccc(-c3cnc(NCc4cccc(F)c4)c(N4CCNCC4)n3)cc12` [drawing 103], under setting [2], the concentration for half-maximal inhibition (IC50) amounted to 44 nM. For `COc1ccccc1CNc1ncc(-c2ccc3[nH]nc(C)c3c2)nc1N1CCNCC1` [Example 35], under setting [1], the IC50 fell in the range of 0.98 to 240 nM. As to `Cc1n[nH]c2ccc(-c3cnc(NCc4ccccc4)c(N4CCNCC4)n3)cc12` [drawing 101], the IC50 under setting [2] was found to be 46 nM. On the same count and under the same terms, then `Cc1n[nH]c2ccc(-c3cnc(NCc4ccccc4)c(NCCN)n3)cc12`, with 79 nM. On to `Cc1n[nH]c2ccc(-c3cnc(NCc4cccc(Cl)c4)c(N4CCNCC4)n3)cc12` [Example 30], for which the IC50 under setting [1] is 0.98 to 240 nM.

Broadly, the IC50 is the concentration that inhibits the measured activity by half.
